Key:
rats = details: rat, in vivo
FSH = assay: Example 9: FSH; format: in vivo, human
Method: Eligible male patients were aged ≥18 years with a histologically confirmed diagnosis of localized, intermediate-risk prostate cancer, for whom 6-month neoadjuvant and adjuvant androgen deprivation therapy (ADT) to external beam radiation therapy (EBRT) was indicated. The criteria for establishing intermediate-risk prostate cancer included the presence of one of the following, without any high-risk feature: T2b-T2c disease, Gleason score 7, or prostate-specific antigen (PSA) 10-20 ng/mL. Additional inclusion criteria included: EBRT scheduled to begin ≥12 weeks after baseline visit; screening serum testosterone >150 ng/dL (5.2 nmol/L); screening PSA concentration >2 ng/ml; body mass index ≥18.0 at screening or baseline (i.e., the subject's BMI prior to treatment commencing); Eastern Cooperative Oncology Group performance status of 0 or 1 at screening. Based on investigator discretion and clinical assessment of the patient's overall medical and disease status, participation was allowed for older patients with high-risk disease (e.g., based on Gleason score or tumor status) who were deemed likely to benefit from 6 months of neoadjuvant/adjuvant ADT. Most patients had intermediate-risk disease. However, a few patients, based on Gleason score or tumor, node, and metastasis staging system, were technically of higher than intermediate risk.
Both treatment arms received treatment for 24 weeks. Patients remained on treatment for at least 12 weeks before the start of external beam radiation treatment (EBRT), which was initiated for most patients between Week 13, Day 1 and Week 15, Day 1. EBRT began no later than day 1, week 17.
Patients were evaluated every 4 weeks during the treatment period (including day 1, week 25), at end of treatment (defined as week 29), during follow-up (week 33), and at end of study (EOS).
Samples for testosterone, luteinizing hormone (LH), FSH, and PSA concentrations were taken at screening, on day 1 of the first week (additionally days 2 and 4 for testosterone and LH), and on day 1 of weeks 2, 3, 5, 9, 13, 17, 21, 25, 29, 33, and 37 thereafter. […] Suppression of FSH was less profound than that of LH, but consistent with the literature, and was greater than that observed with GnRH agonists.

[1] = system: patients with advanced prostate cancer; assay: Example 8: treatment-emergent adverse events (safety population)
Method: The core tablets were coated with a film coating comprising hypromellose 2910 (21.36 mg), titanium dioxide (2.4 mg), and red ferric oxide (0.06 mg).
For patients receiving leuprolide acetate (leuprorelin), on-treatment study visits occurred at baseline (day 1, week 1), day 1 of weeks 2, 3, and 5, and then every 4 weeks until week 25, and then at 12 week intervals (week 37 and 49). Patients on leuprorelin received their final injection at week 37, day 1, and the week 49, day 1 visit was considered the end of leuprorelin exposure. Patients receiving leuprorelin at visits at 16 (EOT), 20 (follow-up visit), and 24 (EOS) weeks after the last leuprorelin injection.
Efficacy and safety analyses were conducted using a safety population (received ≥1 dose of study drug). […] Safety was assessed by recording the incidence, severity, and types of treatment-emergent adverse events; by physical examination (including slit lamp examination of the anterior eye); and by evaluating changes from baseline in weight, vital signs, 12-lead electrocardiogram (ECG), and clinical laboratory parameters. […] Adverse events were coded using the Medical Dictionary for Regulatory Activities version 19.0 and graded according to National Cancer Institute Common Terminology Criteria version 4.03 (Tables 7 and 8). Safety-related haematology, chemistry, and urinalysis measurements were taken at each study visit and analysed at a central laboratory (LabCorp). Phospholipidosis was assessed as part of the safety assessments.

[2] = system: patients with advanced prostate cancer; assay: Example 8: quality of life, Aging Male Survey (AMS); format: in vivo, human; details: for AMS total score, mean: Baseline
Method: Quality of life (QoL) was assessed throughout the study and the follow-up period. The 25-item Prostate Cancer Module of the European Organization for Research and Treatment of Cancer Quality of Life Questionnaire (EORTC QLQ-PR25), Aging Male Survey (AMS), and core 30-item EORTC Quality of Life Questionnaire (EORTC QLQ-C30) were completed at screening, day 1 of weeks 5, 13, 25, 37, and 49, and, if applicable, at the follow-up visits.

serum PSA = assay: Example 6: serum PSA (CLEIA); format: in vivo, human
Method: This study consisted of two parts: Part A, a dose-rising phase, and Part B, an expansion phase. Whether or not the study would proceed to the next cohort or to Part B was determined through assessment of tolerability at the present dose, based on the incidence of adverse effects during the evaluation period.
Subjects in Cohort 1 received a load dose of 320 mg and a maintenance dose of 80 mg; subjects in Cohort 2 received a load dose of 320 mg and a maintenance dose of 120 mg; subjects in Cohort 3 received a load dose of 320 mg and a maintenance dose of 160 mg; and subjects in Cohort 4 received a load dose of 360 mg and a maintenance dose of 120 mg.
In addition to the safety assessments, efficacy assessments were also performed according to the study schedule, and the Compound 1 formulation was administered until each subject met the discontinuation criteria.

serum DHT = assay: Example 7: serum DHT in healthy men; format: in vivo, human
Method: FSH, DHT, and insulin-like growth factor 1 (IGF-1; Parts 3 and 4 only) were measured in a subset of samples. Serum testosterone was assayed using a conventional immunoassay for screening (LLOQ=0.4 nmol/L). A validated LC/MS/MS method, with an LLOQ of 0.173 nmol/L and a ULOQ of 10.425 nmol/L, was used for all subsequent baseline (i.e., the subject's serum hormone levels prior to treatment commencing) and postdose measurements.

[3] = Part A Day 28, Cohort 1 (320 mg load, 80 mg QD)
[4] = Part A Day 28, Cohort 2 (320 mg load, 120 mg QD)
[5] = Part A Day 28, Cohort 3 (320 mg load, 160 mg QD)
[6] = Part B Week 13 Day 1 (LOCF), 120 mg group

Which results are given for `CONC(=O)Nc1ccc(-c2sc3c(c2CN(C)C)c(=O)n(-c2ccc(OC)nn2)c(=O)n3Cc2c(F)cccc2F)cc1` [Compound 1, N-(4-(1-(2,6-difluorobenzyl)-5-((dimethylamino)methyl)-3-(6-methoxy-3-pyridazinyl)-2,4-dioxo-1,2,3,4-tetrahydrothieno[2,3-d]pyrimidin-6-yl)phenyl)-N′-methoxyurea]?
adverse effect observed in non-clinical toxicity studies (rats): phospholipidosis; FSH level before administration (FSH; Baseline): 11.826 IU/L; FSH level (FSH; Week 2, Day 1): 2.363 IU/L; mean FSH level (FSH; Week 25, Day 1): 1.475 IU/L; Acute coronary syndrome, Grade ≥3 ([1]; 80 mg QD): 0 n (%); Death (Table 7) ([1]; 80 mg QD): 1 (2) n (%); Death, Grade ≥3 (Table 8) ([1]; 80 mg QD): 0 n (%); Sudden death, Grade ≥3 ([1]; 80 mg QD): 0 n (%); Acute coronary syndrome, Grade ≥3 ([1]; 120 mg QD): 1 (2) n (%); Death (Table 7) ([1]; 120 mg QD): 0 (0) n (%); Death, Grade ≥3 (Table 8) ([1]; 120 mg QD): 1 (2) n (%); Sudden death, Grade ≥3 ([1]; 120 mg QD): 1 (2) n (%); overall safety profile ([1]; in vivo): appeared similar to that seen in the smaller observational leuprorelin cohort; AMS total score, mean ([2]; 80 mg QD): 29.8; AMS total score after treatment, mean percent change from baseline ([2]; 80 mg QD, EOS): 21.9%; AMS total score after treatment, mean percent change from baseline ([2]; 80 mg QD, EOT): 30.5%; AMS total score after treatment, mean percent change from baseline ([2]; 80 mg QD, Follow-up): 31.8%; AMS total score, mean percent change from baseline ([2]; 80 mg QD, W5, D1): 3.9%; AMS total score, mean percent change from baseline ([2]; 80 mg QD, W13, D1): 14.8%; AMS total score, mean percent change from baseline ([2]; 80 mg QD, W25, D1): 20.3%; AMS total score, mean percent change from baseline ([2]; 80 mg QD, W49, D1): 30.1%; AMS total score, mean ([2]; 120 mg QD): 29.9; AMS total score after treatment, mean percent change from baseline ([2]; 120 mg QD, EOS): 25.3%; AMS total score after treatment, mean percent change from baseline ([2]; 120 mg QD, Follow-up): 25.2%; AMS total score, mean percent change from baseline ([2]; 120 mg QD, W5, D1): 10.9%; AMS total score, mean percent change from baseline ([2]; 120 mg QD, W13, D1): 17.3%; AMS total score, mean percent change from baseline ([2]; 120 mg QD, W25, D1): 20.4%; AMS total score, mean percent change from baseline ([2]; 120 mg QD, W37, D1): 24.5%; AMS total score, mean percent change from baseline ([2]; 120 mg QD, W49, D1): 24.4%; QOL (AMS, EORTC QLQ-PR25 sexual activity) during 12 week recovery ([2]; after discontinuation of 48 weeks of treatment): appeared to improve more in the Compound 1 group than the leuprorelin group; mean percentage change from baseline in serum PSA (serum PSA; [3]): −76.37%; median percentage change from baseline in serum PSA (serum PSA; [3]): −77.50%; mean percentage change from baseline in serum PSA (serum PSA; [4]): −60.10%; median percentage change from baseline in serum PSA (serum PSA; [4]): −72.30%; mean percentage change from baseline in serum PSA (serum PSA; [5]): −32.10%; median percentage change from baseline in serum PSA (serum PSA; [5]): −50.50%; median percentage change from baseline in serum PSA (serum PSA; Part B Week 13 Day 1 (LOCF), 80 mg group): −97.20%; mean percentage change from baseline in serum PSA (serum PSA; [6]): −93.11%; median percentage change from baseline in serum PSA (serum PSA; [6]): −95.80%; time postdose at which mean serum DHT began to decrease (serum DHT; Part 1 single doses 80-360 mg): 2 h; mean serum dihydrotestosterone at end of 16 days (serum DHT; Part 2, 80 mg, baseline 1.883 nmol/L): 1.095 nmol/L; mean serum dihydrotestosterone at end of 16 days (serum DHT; Part 2, 180 mg, baseline 1.882 nmol/L): 0.865 nmol/L
